Patent US20110105577A1 (priority 2007, published 2011)

Structure (SMILES)	Aflatoxin B1 [ppb] (Aspergillus flavus)	Aflatoxin B1 [ppb] (Aspergillus parasiticus)
N#Cc1c[nH]cc1-c1cccc2c1OC(F)(F)O2 [Fludioxonil]	1230	17390
OC(Cc1ccccc1Cl)(Cn1nc[nH]c1=S)C1(Cl)CC1 (centres unmarked) [Prothioconazole]	865	37785
CC(C)(C)C(O)(CCc1ccc(Cl)cc1)Cn1cncn1 (centres unmarked) [Tebuconazole]	2445	4545
CON=C(C(=O)OC)c1ccccc1CON=C(C)c1cccc(C(F)(F)F)c1 [Trifloxystrobin]	375	9775
